Reference: ChEMBL document CHEMBL3045592, “Studies of O,O-dimethyl α-(2,4-dichlorophenoxyacetoxy)ethylphosphonate (HW02) as a new herbicide. 1. Synthesis and herbicidal activity of HW02 and analogues as novel inhibitors of pyruvate dehydrogenase complex” (J Agric Food Chem, 2011)

What was measured:
[1] = test system: Setaria viridis; test: Pre-emergence herbicidal activity against Setaria viridis (green foxtail) assessed as growth inhibition at 75 ai g/ha after 20 days by green house test; type: functional
[2] = test system: Abutilon theophrasti; test: Pre-emergence herbicidal activity against Abutilon theophrasti (velvetleaf) assessed as growth inhibition at 150 ai g/ha after 20 days by green house test; type: functional
[3] = test system: Setaria viridis; test: Post-emergence herbicidal activity against Setaria viridis (green foxtail) assessed as growth inhibition at 75 ai g/ha after 20 days by green house test; type: functional
[4] = test system: Digitaria sanguinalis; test: Post-emergence herbicidal activity against Digitaria sanguinalis (hairy crabgrass) assessed as growth inhibition at 150 ai g/ha after 20 days by green house test; type: functional
[5] = Toxicity against Oryza sativa (rice) assessed as growth inhibition at 450 ai g/ha post-emergent application measured after 20 days by green house crop selectivity test; type: organism-based; details: in vivo, read-out: GI
[6] = test system: Digitaria sanguinalis; test: Post-emergence herbicidal activity against Digitaria sanguinalis (hairy crabgrass) assessed as growth inhibition at 1500 ai g/ha after 20 days by green house test; type: functional
[7] = test system: Digitaria sanguinalis; test: Post-emergence herbicidal activity against Digitaria sanguinalis (hairy crabgrass) assessed as growth inhibition at 75 ai g/ha after 20 days by green house test; type: functional
[8] = test system: Amaranthus spinosus; test: Post-emergence herbicidal activity against Amaranthus spinosus assessed as growth inhibition at 150 ai g/ha after 20 days by green house test; type: functional
[9] = test system: Chenopodium album; test: Post-emergence herbicidal activity against Chenopodium album assessed as growth inhibition at 75 ai g/ha after 20 days by green house test; type: functional
[10] = test system: Brassica rapa subsp. oleifera; test: Pre-emergence herbicidal activity against Brassica rapa subsp. oleifera Si Yue Man assessed as growth inhibition at 1500 ai g/ha after 20 days by green house test; type: functional
[11] = test system: Abutilon theophrasti; test: Pre-emergence herbicidal activity against Abutilon theophrasti (velvetleaf) assessed as growth inhibition at 75 ai g/ha after 20 days by green house test; type: functional
[12] = target: T1, Pyruvate dehydrogenase complex (Pisum sativum, UniProt P52902+P52904); test: Inhibition of PDHc in Pisum sativum Zhongwan-2 (pea) shoot mitochondria assessed as decrease in rate of NADH formation using sodium pyruvate as substrate preincubated for 25 min before substrate addition measured after 1 min by spectrophotometric assay; type: protein-complex assay, Lathyrus oleraceus
T1 sequence (P52902 whole entry): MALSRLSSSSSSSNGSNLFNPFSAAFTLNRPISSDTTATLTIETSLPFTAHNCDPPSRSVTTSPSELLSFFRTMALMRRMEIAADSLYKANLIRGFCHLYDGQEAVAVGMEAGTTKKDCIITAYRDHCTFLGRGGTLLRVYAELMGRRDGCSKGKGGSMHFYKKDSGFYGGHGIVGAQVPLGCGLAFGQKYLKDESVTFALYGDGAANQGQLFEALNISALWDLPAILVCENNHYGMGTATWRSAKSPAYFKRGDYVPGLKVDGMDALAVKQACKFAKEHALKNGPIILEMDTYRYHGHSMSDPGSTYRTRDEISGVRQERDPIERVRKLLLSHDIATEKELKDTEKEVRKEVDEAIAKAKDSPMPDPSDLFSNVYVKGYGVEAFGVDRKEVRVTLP
T1 sequence (P52904 whole entry): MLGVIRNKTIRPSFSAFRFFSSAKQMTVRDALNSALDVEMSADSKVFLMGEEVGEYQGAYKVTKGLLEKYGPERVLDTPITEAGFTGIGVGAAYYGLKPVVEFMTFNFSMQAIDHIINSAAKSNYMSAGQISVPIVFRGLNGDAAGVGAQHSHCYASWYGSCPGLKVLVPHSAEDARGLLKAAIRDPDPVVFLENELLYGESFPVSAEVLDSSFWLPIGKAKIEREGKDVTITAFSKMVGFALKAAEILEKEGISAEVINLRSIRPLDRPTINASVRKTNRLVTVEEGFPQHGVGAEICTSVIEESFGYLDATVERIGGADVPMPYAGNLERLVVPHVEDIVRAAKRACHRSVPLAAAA

[13] = test system: Echinochloa crus-galli; test: Post-emergence herbicidal activity against Echinochloa crus-galli (barnyard grass) assessed as growth inhibition at 450 ai g/ha after 20 days by green house test; type: functional
[14] = test system: Pisum sativum; test: Post-emergence herbicidal activity against Pisum sativum Zhongwan-2 (pea) assessed as growth inhibition at 450 ai g/ha after 20 days by green house test; details: Lathyrus oleraceus
[15] = test system: Setaria viridis; test: Pre-emergence herbicidal activity against Setaria viridis (green foxtail) assessed as growth inhibition at 450 ai g/ha after 20 days by green house test; type: functional
[16] = test system: Abutilon theophrasti; test: Post-emergence herbicidal activity against Abutilon theophrasti (velvetleaf) assessed as growth inhibition at 450 ai g/ha after 20 days by green house test; type: functional
[17] = test system: Chenopodium album; test: Pre-emergence herbicidal activity against Chenopodium album assessed as growth inhibition at 75 ai g/ha after 20 days by green house test; type: functional
[18] = test system: Digitaria sanguinalis; test: Pre-emergence herbicidal activity against Digitaria sanguinalis (hairy crabgrass) assessed as growth inhibition at 450 ai g/ha after 20 days by green house test; type: functional
[19] = test system: Cucumis sativus; test: Herbicidal activity against Cucumis sativus Jin 4 (cucumber) assessed as inhibition of root growth after 3 days; type: functional, organism-based; details: Jin 4, 72 h
[20] = test system: Cucumis sativus; test: Herbicidal activity against Cucumis sativus Jin 4 (cucumber) assessed as inhibition of stem growth after 3 days; type: functional, organism-based; details: Jin 4, 72 h
[21] = test system: Amaranthus retroflexus; test: Post-emergence herbicidal activity against Amaranthus retroflexus assessed as growth inhibition at 150 ai g/ha after 20 days by green house test; type: functional
[22] = test system: Oryza sativa; test: Inhibition of PDHc in Oryza sativa (rice) shoot mitochondria assessed as decrease in rate of NADH formation using sodium pyruvate as substrate at 1 microg/g preincubated for 25 min before substrate addition measured after 1 min by spectrophotometric assay
[23] = test system: Eclipta prostrata; test: Post-emergence herbicidal activity against Eclipta prostrata assessed as growth inhibition at 225 ai g/ha after 20 days by green house test; type: functional
[24] = test system: Digitaria sanguinalis; test: Post-emergence herbicidal activity against Digitaria sanguinalis (hairy crabgrass) assessed as growth inhibition at 18.75 ai g/ha after 20 days by green house test; type: functional
[25] = test system: Echinochloa crus-galli; test: Post-emergence herbicidal activity against Echinochloa crus-galli (barnyard grass) assessed as growth inhibition at 75 ai g/ha after 20 days by green house test; type: functional
[26] = test system: Echinochloa crus-galli; test: Post-emergence herbicidal activity against Echinochloa crus-galli (barnyard grass) assessed as growth inhibition at 150 ai g/ha after 20 days by green house test; type: functional
[27] = test system: Xanthium strumarium; test: Post-emergence herbicidal activity against Xanthium strumarium (cocklebur) assessed as growth inhibition at 75 ai g/ha after 20 days by green house test; type: functional
[28] = test system: Cardamine hirsuta; test: Post-emergence herbicidal activity against Cardamine hirsuta assessed as growth inhibition at 150 ai g/ha after 20 days by green house test; type: functional
[29] = test system: Daucus carota; test: Post-emergence herbicidal activity against Daucus carota (carrot) assessed as growth inhibition at 600 ai g/ha after 20 days by green house test; type: functional
[30] = Toxicity against Triticum aestivum Yang Mai 1 (wheat) assessed as growth inhibition at 600 ai g/ha post-emergent application measured after 20 days by green house crop selectivity test; type: organism-based; details: Yang Mai 1, triticum aestivum, in vivo, read-out: GI
[31] = test system: Xanthium strumarium; test: Post-emergence herbicidal activity against Xanthium strumarium (cocklebur) assessed as growth inhibition at 300 ai g/ha after 20 days by green house test; type: functional

SMILES	growth inhibition (GI) [1] [%]	growth inhibition (GI) [2] [%]	growth inhibition (GI) [3] [%]	growth inhibition (GI) [4] [%]	inhibition at 480 h [5] [%]	growth inhibition (GI) [6]	growth inhibition (GI) [7] [%]	growth inhibition (GI) [8] [%]	growth inhibition (GI) [9] [%]	growth inhibition (GI) [10] [%]	growth inhibition (GI) [11] [%]	IC50 [12] [µM]	growth inhibition (GI) [13] [%]	growth inhibition (GI) [14] [%]	growth inhibition (GI) [15] [%]	growth inhibition (GI) [16] [%]	growth inhibition (GI) [17] [%]	growth inhibition (GI) [18] [%]	IC50 [19] [µM]	IC50 [20] [µM]	also measured
COP(=O)(COC(=O)COc1cccc(C(F)(F)F)c1)OC	0	0	0	0	32.5	<=50%	0	0	32.5	75	0	442	0	10	35	87.5	0	35			
O=C(O)COc1ccc(Cl)cc1Cl [2,4-DICHLOROPHENOXYACETIC ACID]	0	0	0	0	37.5	50%	0	92.5	72.5	90	0	> 4530	35		67.5	100	0	65	0.228	10.1	
COP(=O)(OC)C(C)OC(=O)COc1ccc(Cl)cc1Cl (stereo not drawn) [CLACYFOS]	0	0	0	0	0	50%	0	100	92.5	90	0	18.2	35	97.5	35	100	0	45	0.0025	7.56	growth inhibition (GI) [21]: 96%; inhibition [22]: 8.2%; growth inhibition (GI) [23]: 96%; growth inhibition (GI) [24]: 0%; growth inhibition (GI) [25]: 0%; growth inhibition (GI) [26]: 0%; growth inhibition (GI) [27]: 72%; growth inhibition (GI) [28]: 92.5%; growth inhibition (GI) [29]: 100%; inhibition at 480 h [30]: 0%; growth inhibition (GI) [31]: 100%
